Experimental data reported in US8461183B2, “PPAR agonist compounds, preparation and uses” (Genfit, priority 2008, dated 2013).

Columns and labels:
[1] = system: ApoE2/E2 dyslipidemic mouse; assay: Plasma lipids in the ApoE2/E2 dyslipidemic mouse; format: in vivo; conditions: 7 days
Description: The hypolipemic properties of the compounds according to the invention were evaluated in vivo by determination of plasma lipids and by analysis of gene expression of targets genes of PPARs in the liver after oral treatment of a dyslipidemic mouse with the compounds according to the invention.
The murine model used is the mouse of type ApoE2/E2, a mouse transgenic for the E2 isoform of human apolipoprotein E (Sullivan P M et al., 1998). In humans, this apolipoprotein, a constituent of low and very low density lipoproteins (LDL-VLDL), occurs in three isoforms E2, E3 and E4. […] Because of this, clearance of VLDLs is almost zero. This leads to accumulation of […] and mixed, so-called type III hyperlipidemia (raised cholesterol and triglycerides).
PPARα regulates the expression of genes involved in lipid transport (apolipoproteins such as Apo AI, Apo AII and Apo CIII, membrane transporters such as FAT) or the catabolism of lipids (ACO, CPT-I or CPT-II, enzymes of β-oxidation of fatty acids). Treatment with PPARα activators is therefore reflected, both in humans and in rodents, in a decrease in levels of circulating triglycerides. Measurement of plasma lipids after treatment with the compounds according to the invention is therefore an indicator of the PPARα agonist character and therefore of the hypolipemic action of the compounds according to the invention.
(§1) Apo E2/E2 transgenic mice were kept in a cycle of light and darkness of 12 hours/12 hours at a constant temperature of 20±3° C. After acclimation for one week, the mice were weighed and put into groups of 6 animals selected in such a way that the distribution of their bodyweight and of their plasma lipid values determined first before the experiment are uniform. The compounds tested were suspended in carboxymethylcellulose (Sigma C4888) and administered at the chosen dose by stomach tube, at a rate of once a day for 7 days at the chosen dose. The animals had free access to water and food. At the end of the experiment, the animals were anesthetized after fasting for 4 hours, a blood sample was taken on anticoagulant (EDTA), then the mice were weighed and euthanased. The plasma was separated by centrifugation at 3000 rev/min for 20 minutes, and the samples were stored at +4° C. for the biochemical assays. Samples of liver were taken and frozen immediately in liquid nitrogen and then stored at −80° C. for subsequent analyses.
The plasma concentrations of lipids (total cholesterol, HDL-cholesterol, and free fatty acids) were measured by enzyme assays (bioMérieux-Lyons-France) according to the supplier's recommendations.

[2] = system: 3T3-L1 murine pre-adipocytes; assay: PPARγ functional effect: adipogenesis in 3T3-L1 pre-adipocytes (triglycerides, adiponectin); format: cell-based, Mus musculus; conditions: 3T3-L1, 9 days of treatment, 30 nM to 30 μM
Description: The functional effect of activation of PPARγ is evaluated in vitro on a line of pre-adipocyte cells 3T3-L1 (Thompson G M et al., 2004) by measuring the concentration of intracellular triglycerides and the concentration of adiponectin secreted in the culture medium after 9 days of treatment with the compounds according to the invention.
At confluence, the cells were then rinsed with PBS (Phosphate Buffered Saline solution) and the culture medium was replaced with DMEM 4.5 g/L glucose (10% FCS, 1% L-glutamine, 100 units/mL penicillin and 100 μg/mL streptomycin, 0.25 mM) containing a cocktail for initiation of adipocyte differentiation (IBMX (3-isobutyl-1-methylxanthine Sigma; 17018), 0.1 μM dexamethasone (Sigma; D1756) and 0.4 μM of insulin (Sigma; I2643). The cells were also treated with the compounds according to the invention (1 μL of solubilized compound/mL of medium, 200 μL per well).
After 2 days of incubation, the cells were washed with PBS and the differentiation medium was replaced with DMEM 4.5 g/L of glucose supplemented with 10% FCS, 1% L-glutamine, 100 units/mL penicillin and 100 μg/mL streptomycin, 0.4 μM insulin, and the compounds according to the invention for the purpose of completing cellular differentiation and obtaining adipocytes. The medium was changed every 2 days until total differentiation. After culture for 9 days, the treatment was stopped by withdrawing the culture medium, which was stored for assaying secreted adiponectin. The cells were then washed twice with PBS and placed in isopropanol for membrane permeabilization. The content of intracellular triglycerides was evaluated immediately.
Quantification of intracellular triglycerides was performed with the “Triglyceride Enzymatic PAP1000” kit (bioMérieux; 61238) according to the supplier's recommendations. Secreted adiponectin was measured in the culture medium using the “Mouse Adiponectin/Acrp30 Elisa Kit” kit (R&D Systems; DY1119) according to the supplier's recommendations.

[3] = system: PPARα target genes (ACO, PDK-4, Apo CIII) in liver; assay: Hepatic expression of PPARα target genes (quantitative RT-PCR) in the ApoE2/E2 mouse; format: in vivo; conditions: 10 and 100 mpk, 7 days, normalized to 36B4
Text: The PPARα agonist properties previously measured in vitro should be translated at the hepatic level by a change in the level of expression of the target genes directly under the control of the PPARα receptor: the genes that were studied in these experiments are those coding for ACO (a key enzyme in the mechanism of β-oxidation of fatty acids), PDK-4 (an enzyme of carbohydrate metabolism) and Apo CIII (apolipoprotein involved in lipid metabolism). This change in gene expression after treatment with the compounds according to the invention is therefore also an indicator of their hypolipemic character.
as §1
Total RNA was extracted from fragments of liver using the NucleoSpin® 96 RNA kit (Macherey Nagel, Hoerdt, France) according to the manufacturer's instructions. 1 μg of total RNA (quantified using the Ribogreen RNA quantification kit (Molecular Probes)) was then reverse transcribed to complementary DNA by a reaction of 1 hour at 37° C. in a total volume of 20 μl containing buffer 1× (Sigma), 1.5 mM of DTT, 0.18 mM of dNTPs (Promega), 200 ng of pdN6 (Amersham), 30U of RNase inhibitor (Sigma) and 1 μl of MMLV-RT (Sigma).
The quantitative PCR experiments were performed using the MyiQ Single-Color Real-Time PCR Detection System (Biorad, Marnes-la-Coquette, France) and were carried out using the iQ SYBR Green Supermix kit according to the supplier's recommendations, in 96-well plates, on 5 μl of diluted reverse transcription reaction mixtures, with a hybridization temperature of 55° C. Specific primer pairs of the genes under investigation were used:
The amount of fluorescence emitted is directly proportional to the amount of complementary DNA present at the start of the reaction and amplified during PCR. For each target investigated, a range is prepared by successive dilutions of a pool consisting of a few μl of different reverse transcription reactions. The relative levels of expression of each target are thus determined using the curves of efficacy obtained with the scale points.
The levels of expression of the genes of interest were then normalized relative to the level of expression of the 36B4 reference gene (whose specific primers are: […]
The induction factor, i.e. the ratio of the relative signal (induced by the compound according to the invention) to the mean of the relative values of the control group, was then calculated for each sample. The higher this factor, the more the compound has a character of activation of gene expression. The final result is represented as the mean of the induction values in each experimental group.

Which results are given for `COc1nc(-c2ccccc2)ccc1CNc1ccc(CCC(=O)O)cc1` [Cpd 19, 3-(4-(((2-methoxy-6-phenylpyridin-3-yl)methyl)amino)phenyl)propanoic acid]?
plasma level of free fatty acids ([1]; 100 mpk oral): decrease; plasma total cholesterol ([1]; 100 mpk oral): decreased; accumulation of triglycerides in adipocytes [2]: dose-dependent stimulation; secretion of adiponectin [2]: dose-dependent stimulation

For `COc1nc(-c2ccccc2)ccc1CNc1ccc(OCC(=O)O)cc1` [Cpd 4, 2-(4-(((2-methoxy-6-phenylpyridin-3yl)methyl)amino)phenoxy)ethanoic acid], which “hepatic expression of gene coding for ACO” value [3] is on record?
The value was “hepatic overexpression”.

What about the “hepatic expression of gene coding for ApoCIII” value [3] of the same compound?
Its value is “significant inhibition”.

And the “hepatic expression of gene coding for PDK-4” value [3]?
Its value is “hepatic overexpression”.

What about the “plasma level of HDL-cholesterol” value ([1]; 10 and 100 mpk oral) of the same compound?
Its value is “dose-dependent increase”.

What about the plasma total cholesterol ([1]; 10 and 100 mpk oral) of the same compound?
Its plasma total cholesterol is “decreased”.

Which results are given for `COc1nc(-c2ccccc2)ccc1COc1ccc(OCC(=O)O)cc1` [Cpd 2, 2-(4-((2-methoxy-6-phenylpyridin-3-yl)methoxy)phenoxy)ethanoic acid]?
hepatic expression of gene coding for ACO [3]: hepatic overexpression; hepatic expression of gene coding for ApoCIII [3]: significant inhibition; hepatic expression of gene coding for PDK-4 [3]: hepatic overexpression; plasma level of HDL-cholesterol ([1]; 10 and 100 mpk oral): dose-dependent increase; plasma total cholesterol ([1]; 10 and 100 mpk oral): decreased

What does the source list for `COc1nc(-c2ccc(C(F)(F)F)cc2)ccc1COc1ccc(OCC(=O)O)cc1` [Cpd 24, 2-(4-((2-methoxy-6-(4-(trifluoromethyl)phenyl)pyridin-3-yl)methoxy)-phenoxy)ethanoic acid]?
accumulation of triglycerides in adipocytes [2]: dose-dependent stimulation; secretion of adiponectin [2]: dose-dependent stimulation
